# Reference: patent publication US20250177412A1, “SMALL-MOLECULE INHIBITORS TARGETING THE BOB1/OCT1 INTERFACE” (NANTES UNIVERSITE, priority 2022, published 2025)
# Tests used:
# B cells = assay: GZMB+ B cell expansion; assay type: cell-based, human; conditions: 10 μM added daily, day 3
# Procedure: B cells were kept unstimulated (B resting) or stimulated (B expanded) for 24 hours with the expansion mixture containing F(ab′)2 anti-BCR, CpG ODN, CD40L, IL-2, and IL-21. FIG. 6A-B show the expression level of granzyme B measured as frequency (FIG. 6A) and by the MFI (FIG. 6B) in DMSO-treated (compound 005-) and 10 μM compound 005-treated resting (open circles) and expanded for 3 days (closed circles) B cells. […] Representative offset histogram overlays showing median fluorescence intensity of staining of gated live […] with cell proliferation dye (CPD) (FIGS. 6C, 6E and 6F). […]
# Primary total human B cells (1×10^6 cells/mL) were prestimulated for ˜24 h with the cocktail containing 10 ng/mL of IL-21 (Miltenyi Biotec), 5 μg/mL of F(ab′)2 anti-BCR Abs (Jackson ImmunoResearch Laboratories Inc.), 50 ng/ml of CD40L (R&D systems), 1 μg/mL of CpG oligonucleotides (ODN 2006, Invivogen), and 50 U/mL of IL-2 (Novartis) as previously described, in the presence of vehicle (DMSO) or 10 μM compound 005. […] The capacity of B cells to suppress effector T cell proliferation was assessed as previously described. […] T cell proliferation was evaluated as the percentage of CPD-low T cells on day 3. […]
# [1] = target: T1, ternary BOB1/POU1/PORE complex (Homo sapiens, UniProt P14859); assay: Electrophoretic mobility shift assay (EMSA); assay type: binding; conditions: 100 μM
# T1 construct: made in house; host or cells: E. coli BL21
# T1 sequence (P14859 280-438): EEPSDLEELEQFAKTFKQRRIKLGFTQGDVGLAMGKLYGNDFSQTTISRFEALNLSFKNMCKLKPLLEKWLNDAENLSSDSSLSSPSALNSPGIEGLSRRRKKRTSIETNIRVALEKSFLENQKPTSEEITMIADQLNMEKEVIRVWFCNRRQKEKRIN
compound,measurement,setting,value
"Cc1ccc(NC(=O)C2CN(c3nc(NCCCc4ccc(F)cc4)nc(NCCC(=O)O)n3)c3ccccc3O2)cc1Cl (centres unmarked) [compound 005, 3-((4-(2-((3-chloro-4-methylphenyl)carbamoyl)-2,3-dihydro-4H-benzo[b][1,4]oxazin-4-yl)-6-((3-(4-fluorophenyl)propyl)amino)-1,3,5-triazin-2-yl)amino)propanoic acid]",GZMB expression,B cells,did not affect
same,effect on ternary BOB1/POU1/PORE complex,[1],has not affected
